{
  "source": "patent US9657273B2",
  "about": "“Method for suppressing teratoma formation via selective cell death induction in undifferentiated human-induced pluripotent stem cells” (Industry-University Cooperation Foundation Sogang University, priority 2012, dated 2017)",
  "key": {"[1]": {"test_system": "human induced pluripotent stem cells (iPS)", "assay": "Apoptosis-specific cell phenotype observed under microscope", "type": "cell-based", "protocol": "Human induced pluripotent stem cells (iPS) derived from human aortic smooth muscle cells (HASMC) was subcultured in an ESC medium (DMEM/F/12 supplemented with a 20% KnockOutTM serum replacement, 0.1% gentamycin, 1% non-essential amino acids, 0.1% β-mercaptoethanol and 4 ng/ml bFGF) containing mouse embryonic fibroblasts (MEF) treated with mitomycin-C as supporting cells Lee, T. H., et al., (2010). Functional recapitulation of smooth muscle cells via induced pluripotent stem cells from human aortic smooth muscle cells. Circ Res 106, 120-128). For the pretreatment of quercetin and YM-155 of the present invention, iPS was cultured in a matrigel-coated 60 mm dish containing […]1 medium (29106, Stem Cell Technology) to induce them into smooth muscle cells (SMC). Human aortic smooth muscle cells (HASMC) and human induced pluripotent stem cells-derived differentiated cells, i.e., human induced pluripotent stem cells-derived smooth muscle cells (iPS-SMC) were cultured in an SMCM medium (ScienCell research laboratories, cat #1101) as described in the reference (Lee et al., 2010). In order to confirm the selective apoptosis of undifferentiated human induced pluripotent stem cells by quercetin, human induced pluripotent stem cells (iPS) derived from human aortic smooth muscle cells (HASMC), HASMC, smooth muscle cell no. 1 differentiated-derived from iPS (iPS-SMC-1), and smooth muscle cell no. […]"}, "[2]": {"test_system": "human induced pluripotent stem cells (iPS)", "assay": "Immunoblotting of apoptosis marker proteins in cell lysate", "type": "cell-based", "conditions": "50 μM quercetin, 24 hours", "from_the_text": "The antibodies used in the immunoblotting assay and anti-PARP1 (SC-7150) and anti-β-actin (SC-47778) were purchased from Santa Cruz Biotech Inc. (CA, USA). Additionally, anti-caspase-9 (Cat#9502) and anti-cleaved caspase-3 (Cat#9661) purchased from Cell Signaling Technology (Danvers, Mass., USA). In order to confirm the selective apoptosis of undifferentiated human induced pluripotent stem cells by quercetin, human induced pluripotent stem cells (iPS) derived from human aortic smooth muscle cells (HASMC), HASMC, smooth muscle cell no. 1 differentiated-derived from iPS (iPS-SMC-1), and smooth muscle cell no."}, "HASMC and iPS-SMC3": {"test_system": "HASMC and iPS-SMC3", "assay": "α-SMA expression by immunofluorescence", "type": "cell-based, human", "conditions": "50 μM quercetin, 24 hours", "protocol": "Human aortic smooth muscle cells (HASMC) and human induced pluripotent stem cells-derived differentiated cells, i.e., human induced pluripotent stem cells-derived smooth muscle cells (iPS-SMC) were cultured in an SMCM medium (ScienCell research laboratories, cat #1101) as described in the reference (Lee et al., 2010). As the first antibody used in IFA was anti-α-smooth muscle actin (α-SMA) (Dako Inc, Carpinteria, Calif.). Images were obtained using Axioscope A1 microscope (Carl Zeiss) and analyzed."}, "iPS-SMC1 and iPS-SMC3": {"test_system": "iPS-SMC1 and iPS-SMC3", "assay": "Measurement of intracellular calcium (Fura-2) after ATP or 75 mM K+", "type": "cell-based, human", "conditions": "50 μM quercetin, 24 hours, then ATP or 75 mM potassium solution", "protocol": "In order to confirm the functions of the differentiated cells which were completely differentiated into smooth muscle cells, an intracellular calcium reaction was used. As described in the reference article (Lee et al., 2006), intracellular or extracellular calcium transients were induced using pharmacological reagents, ATP or 75 mM K^+ solution, and the values were numerized in fluorescence using a calcium indicator Fura-2 (Molecular Probes, Eugene, Oreg.), and imaged."}, "[3]": {"test_system": "mixed cell population of human induced pluripotent stem cells-smooth muscle cells", "assay": "Cleaved caspase-3 immunostaining in 1:1 mixed iPS / iPS-derived smooth muscle cell culture", "type": "cell-based", "conditions": "50 μM quercetin, 24 hours; 1:1 mixture of iPS and iPS-derived SMC", "protocol": "The scale bar denotes 100 μm. […] In order to confirm the functions of smooth muscle cells differentiated-derived from human induced pluripotent stem cells, the population, which was cultured by mixing human induced pluripotent stem cells and the smooth muscle cells differentiated-derived from the human induced pluripotent stem cells in a 1:1 ratio, was treated with 50 μM quercetin for 24 hours, and examined the cleavage type caspase-3 positive population in the population of SMA-positive population or SSEA-4-positive population."}, "[4]": {"test_system": "undifferentiated induced pluripotent stem cells", "assay": "Selective cell death of undifferentiated induced pluripotent stem cells (summary statement)", "type": "cell-based, human", "conditions": "treatment of induced pluripotent stem cells; differentiated cells not affected", "from_the_text": "The present inventors have made intensive efforts to develop a method for obtaining pure differentiated cells from induced pluripotent stem cells, and in particular, a method for obtaining only the pure differentiated cells by removing the possibility of a tumor formation by the undifferentiated induced pluripotent stem cells causing teratoma formation."}},
  "note": "“Also recorded” adds a separate entry of the source.",
  "data": [
    {"molecule": "O=c1c(O)c(-c2ccc(O)c(O)c2)oc2cc(O)cc(O)c12", "note": "[quercetin, 2-(3,4-dihydroxyphenyl)-3,5,7-trihydroxy-4H-chromen-4-one]", "values": [
      {"measurement": "apoptosis-specific phenotypic cell type", "setting": "[1]; 50 μM quercetin, 24 hours, iPS vs HASMC, iPS-SMC-1, iPS-SMC-3", "result": "exhibited a distinct apoptosis-specific cell phenotype; also recorded: distinctive apoptosis-specific phenotypic cell type was discovered"},
      {"measurement": "degree of apoptosis (apoptosis-specific phenotypic cell type) at various concentrations", "setting": "[1]; various concentrations of quercetin (QC), iPS", "result": "concentration-dependent"},
      {"measurement": "apoptosis marker proteins: cleavage of Parp-1, cleaved caspase-3 and caspase-9", "setting": "[2]", "result": "exhibited the expression of Parp-1 cleavage (T type), cleavage types of caspase-3 and caspase-9"},
      {"measurement": "expression of α-SMA (immunofluorescence)", "setting": "HASMC and iPS-SMC3", "result": "the expression of α-SMA was confirmed"},
      {"measurement": "intracellular calcium response (function as smooth muscle cells)", "setting": "iPS-SMC1 and iPS-SMC3", "result": "confirmed the functions as smooth muscle cells"},
      {"measurement": "cleavage type caspase-3 positive population in SSEA-4-positive vs SMA-positive population", "setting": "[3]", "result": "excellent cleavage type caspase-3 positive population within the SSEA-4 positive population"},
      {"measurement": "selective killing of undifferentiated induced pluripotent stem cells", "setting": "[4]", "result": "only the undifferentiated induced pluripotent stem cells were effectively and selectively killed"}
    ]}
  ]
}
